For series [1], the system named is Escherichia coli G (clinical isolate). The series can be described thus: In vivo activity on mouse systemic infection, E. coli (ED50). Particulars: sc, 120 h, mouse systemic infection (female CD1), subcutaneous, treatment 30-90-360 min after infection, survival on day 5, read-out: ED50 (cumulative subcutaneous dose). On the procedure:
(§1) Invivo activity of Compound of formula (I), R =
(§2) CH2 SO2 NHCN (Example 1), in comparison with FCE 22101*,
(§3) on mouse^a systemic infections.
(§4) ^a) Female mice CD1 (Charles River, Italy), weighing 22 ± 2 g were
(§5) used, experimentally infected by an introperitoneal route. Eight animals
(§6) were used at each of the concentrations of compound tested, which were
(§7) administered subcutaneously (0.1 ml/10 g weight). The mortality was
(§8) recorded daily and the number of animals surviving on day 5 was used to
(§9) calculate the cumulative effective dose (ED50).
(§10) ^b) Cumulative subcutaneous dose.
(§11) ^c) Infecting organisms were: S. aureus, Staphylococcus aureus Smith
(§12) ATCC 13709; E. Coli, Escherichia coli G (clinical isolate); S. faecalis,
(§13) ^d) Minutes after infection.

For series [2], the system named is Staphylococcus aureus Smith ATCC 13709. The series can be described thus: In vivo activity on mouse systemic infection, S. aureus (ED50). Particulars: ATCC13709, sc, 120 h, mouse systemic infection (female CD1), subcutaneous, treatment 120 min after infection, survival on day 5, read-out: ED50 (cumulative subcutaneous dose). The method, then: as §1, §2, §3, §4, §5, §6, §7, §8, §9, §10, §11, §12, §13

Series [3] has as its system Streptococcus faecalis 3817 (clinical isolate). As to the kind of experiment: In vivo activity on mouse systemic infection, S. faecalis (ED50). Particulars: Enterococcus faecalis, sc, 120 h, mouse systemic infection (female CD1), subcutaneous, treatment 60-180 min after infection, survival on day 5, read-out: ED50 (cumulative subcutaneous dose). On the procedure:
as §1, §2, §3, §4, §5, §6, §7, §8, §9, §10, §11, §12
Streptococcus faecalis 3817 (clinical isolate).
as §13

Another series is described as follows: Acute toxicity in mice. The following applies: in vivo; mouse, I.D. (so in the source).

Regarding `CC(O)C1C(=O)N2C(C(=O)O)=C(c3ccc(C[n+]4ccc(CS(=O)(=O)[N-]C#N)cc4)cc3)SC12` [Example 1, (5R,6S)-6-/1 (R)-Hydroxyethyl/-2-/4-/4-(N-cyanosulfamoylato) methyl-1-pyridinio/methylphenyl/penem-3-carboxylic acid], the values for the ED50 in series [1], in series [2] and in series [3] were 0.65 mg/kg, 0.16 mg/kg and 8.5 mg/kg, respectively. Also, in the series “Acute toxicity in mice”, the LD50 (as a rule, the dose at which mortality reaches 50%) was more than 3000 mg/kg.

Take `CC(O)C1C(=O)N2C(C(=O)O)=C(COC(N)=O)SC12` (stereo not shown) [FCE 22101, reference compound]: the ED50 – broadly, the dose at which the effect has come halfway, by size or by number of responders – in series [1] turned out to be 10 mg/kg; in series [2] it was 0.7 mg/kg; in series [3], 80 mg/kg.
